Source: ChEMBL document CHEMBL1143505, “Synthesis and pharmacological investigation of novel 1-substituted-4-phenyl-1,2,4-triazolo[4,3-a]quinazolin-5(4H)-ones as a new class of H1-antihistaminic agents” (2005)

Legend:
Cavia porcellus [1] = species on record: Cavia porcellus; experiment: Percentage reduction central nervous system depression in guinea pig by compound
Cavia porcellus [2] = species on record: Cavia porcellus; experiment: Percentage protection of guinea pigs from histamine induced bronchospasm by compound; design: concentration or dose not given beside the values

SMILES | Depression (Cavia porcellus [1]) [%] | Protection (Cavia porcellus [2]) [%]
O=C(O)COCCN1CCN(C(c2ccccc2)c2ccc(Cl)cc2)CC1 (centres undefined) [CETIRIZINE] | 8.5 | 78.9
CN(C)CCC(c1ccc(Cl)cc1)c1ccccn1.O=C(O)/C=C\C(=O)O (centres undefined) [CHLORPHENIRAMINE MALEATE] | 26 | 71
CCCc1nnc2n(-c3ccccc3)c(=O)c3ccccc3n12 | 7.3 | 69.2
O=c1c2ccccc2n2c(CCl)nnc2n1-c1ccccc1 | 3.7 | 68.7
Cc1nnc2n(-c3ccccc3)c(=O)c3ccccc3n12 | 4.8 | 70.7
O=c1c2ccccc2n2cnnc2n1-c1ccccc1 | 4.2 | 69.9
CCc1nnc2n(-c3ccccc3)c(=O)c3ccccc3n12 | 5.3 | 70
